Values of other authors in patent US8529935B2, “Antibacterial hydrogel and use thereof in orthopedics” (Mero S.R.L., priority 2009, dated 2013).

Conditions: known from the literature

SMILES | minimum inhibiting concentration (MIC)
CN[C@H](CC(C)C)C(=O)N[C@H]1C(=O)N[C@@H](CC(N)=O)C(=O)N[C@H]2C(=O)N[C@H]3C(=O)N[C@H](C(=O)N[C@H](C(=O)O)c4cc(O)cc(O)c4-c4cc3ccc4O)[C@H](O)c3ccc(c(Cl)c3)Oc3cc2cc(c3O[C@@H]2O[C@H](CO)[C@@H](O)[C@H](O)[C@H]2O[C@H]2C[C@](C)(N)[C@H](O)[C@H](C)O2)Oc2ccc(cc2Cl)[C@H]1O [vancomycin] | 1.56 to 3.12 µg/mL
NC[C@H]1O[C@H](O[C@H]2[C@H](O)[C@@H](O[C@H]3O[C@H](CO)[C@@H](O)[C@H](N)[C@H]3O)[C@H](N)C[C@@H]2N)[C@H](N)C[C@@H]1O [tobramycin] | about 1 mg/l
